Results taken from patent US20040121968A1, “Antiangiogenesis by inhibiting protein kinase CK2 activity” (priority 2002, published 2004).
Starred links: 1 amine or outer side, 2 acyl side, 3 side chain; linkers in the order of their positions; H or OH if unused. Positions of bridges follow the written chain, without caps; N, C: chain ends. Non-standard residues stand in square brackets, D forms with d. Residues, ends and D or L forms follow the SMILES beside them. Chains are numbered I, II in the order given. Actinocin(9to1) = Cc1c2oc3c(C)ccc(C(=O)[*:1])c3nc-2c(C(=O)[*:2])c(N)c1=O; NMeV = CN[C@H](C(=O)O)C(C)C; Sar = CNCC(=O)O

Test system: retinal endothelial cells (REC)
Experiment: REC angiogenic assays taken together (proliferation, secondary sprouting, migration, tube formation)
Format: cell-based, bovine
Conditions: all assays
Protocol: Human REC (from normal, diabetic and patients with DR [“DR REC”]) and bovine REC were cultured in monolayer (for migration assay) or on top of Matrigel™ where cells form capillary-like tubes. They were treated with angiogenic growth factors or their combinations (at 10 ng/ml of each factor), and seeded with or without TN-C at 10-50 μg/mL. Cell numbers were determined by MTS assay (Promega Corp., Madison, Wis.). Tube length and number, and cell migration were assessed microscopically.
Treatment of REC cultures. Duplicate REC cultures on plastic (for migration) or Matrigel™ with the same number of cells per dish are treated with previously established working concentrations of signaling inhibitors and/or select growth factor combinations. Treatments begin at the time of seeding the cells and medium is changed every other day. Single growth factors are used as negative controls since their modulation of TN-C effects was minimal. Working growth factor concentrations were as follows: VEGF, 1-50 ng/mL depending on the assay; PlGF, 100 ng/mL; FGF-2, 10-100 ng/mL; IGF-I, 25-100 ng/mL; PDGF-BB, 10-100 ng/mL. When used as combinations, each growth factor was supplied at 10 ng/mL for optimum synergy. […]

Structure (SMILES): Cc1c2oc3c(C)ccc(C(=O)N[C@@H]4C(=O)N[C@H](C(C)C)C(=O)N5CCC[C@H]5C(=O)N(C)CC(=O)N(C)[C@@H](C(C)C)C(=O)O[C@@H]4C)c3nc-2c(C(=O)N[C@@H]2C(=O)N[C@H](C(C)C)C(=O)N3CCC[C@H]3C(=O)N(C)CC(=O)N(C)[C@@H](C(C)C)C(=O)O[C@@H]2C)c(N)c1=O [Actinomycin D] (I: T[dV]P[Sar][NMeV] / II: T[dV]P[Sar][NMeV]; ester I:1-I:C, II:1-II:C; linker I:N-II:N via Actinocin(9to1))
- effect of inhibitor in the angiogenic assays: only minor changes
